Legend:
Assay type in all cases: in vivo
[1] = tested on: Erysiphe graminis f. sp. tritici; test: Test A: wheat powdery mildew, preventive spray on wheat seedlings; conditions: wheat seedlings sprayed to run-off, inoculated next day, rated after 8 days, 100 = 100% disease control, 0 = no control; for Percentage Disease Control Test A: 200 ppm
Description: General protocol for preparing test suspensions for Tests A-G: the test compounds were first dissolved in acetone in an amount equal to 11% of the final volume and then suspended at the desired concentration (in ppm) in acetone and purified water (50/50 mix by volume) containing 250 ppm of the surfactant Trem® 014 (polyhydric alcohol esters). The resulting test suspensions were then used in Tests A-G. Spraying a 200 ppm test suspension to the point of run-off on the test plants was the equivalent of a rate of 800 g/ha. The test suspension was sprayed to the point of run-off on wheat seedlings. The following day the seedlings were inoculated with a spore dust of Erysiphe graminis f. sp. tritici, (the causal agent of wheat powdery mildew) and incubated in a growth chamber at 20° C. for 8 days, after which time disease ratings were visually made. Results for Tests A-G are given in Table A. In the Table, a rating of 100 indicates 100% disease control and a rating of 0 indicates no disease control (relative to the controls). A dash (-) indicates no test results. All results are for 200 ppm except where followed by an “*”, which indicates 40 ppm.

[2] = tested on: Puccinia recondita f sp. tritici; test: Test B: wheat leaf rust, preventive spray on wheat seedlings; conditions: wheat seedlings sprayed to run-off, inoculated next day, rated after 24 h + 7 days; for Percentage Disease Control Test B: 200 ppm
Description: General protocol for preparing test suspensions for Tests A-G: the test compounds were first dissolved in acetone in an amount equal to 11% of the final volume and then suspended at the desired concentration (in ppm) in acetone and purified water (50/50 mix by volume) containing 250 ppm of the surfactant Trem® 014 (polyhydric alcohol esters). The resulting test suspensions were then used in Tests A-G. Spraying a 200 ppm test suspension to the point of run-off on the test plants was the equivalent of a rate of 800 g/ha. The test suspension was sprayed to the point of run-off on wheat seedlings. The following day the seedlings were inoculated with a spore suspension of Puccinia recondita f sp. tritici (the causal agent of wheat leaf rust) and incubated in a saturated atmosphere at 20° C. for 24 h, and then moved to a growth chamber at 20° C. for 7 days, after which time disease ratings were visually made. Results for Tests A-G are given in Table A. In the Table, a rating of 100 indicates 100% disease control and a rating of 0 indicates no disease control (relative to the controls). A dash (-) indicates no test results. All results are for 200 ppm except where followed by an “*”, which indicates 40 ppm.

[3] = tested on: Puccinia recondita f. sp. tritici; test: Test C: wheat leaf rust, spray the day after inoculation of wheat seedlings; conditions: 200 ppm; wheat seedlings inoculated, sprayed the following day, rated after 5 days;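 further: Curative spray on infected wheat seedlings with visual rating 5 days later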
Description: General protocol for preparing test suspensions for Tests A-G: the test compounds were first dissolved in acetone in an amount equal to 11% of the final volume and then suspended at the desired concentration (in ppm) in acetone and purified water (50/50 mix by volume) containing 250 ppm of the surfactant Trem® 014 (polyhydric alcohol esters). The resulting test suspensions were then used in Tests A-G. Spraying a 200 ppm test suspension to the point of run-off on the test plants was the equivalent of a rate of 800 g/ha. Wheat seedlings were inoculated with a spore suspension of Puccinia recondita f. sp. tritici (the causal agent of wheat leaf rust) and incubated in a saturated atmosphere at 20° C. for 24 h. The following day, the test suspension was sprayed to the point of run-off on the wheat seedlings and then moved to a growth chamber at 20° C. for 5 days, after which time disease ratings were visually made. Results for Tests A-G are given in Table A. In the Table, a rating of 100 indicates 100% disease control and a rating of 0 indicates no disease control (relative to the controls). A dash (-) indicates no test results. All results are for 200 ppm except where followed by an “*”, which indicates 40 ppm.

Septoria nodorum = test: Test D: wheat glume blotch, preventive spray on wheat seedlings; conditions: wheat seedlings sprayed to run-off, inoculated next day, rated after 48 h + 7 days; for Percentage Disease Control Test D: 200 ppm
Description: General protocol for preparing test suspensions for Tests A-G: the test compounds were first dissolved in acetone in an amount equal to 11% of the final volume and then suspended at the desired concentration (in ppm) in acetone and purified water (50/50 mix by volume) containing 250 ppm of the surfactant Trem® 014 (polyhydric alcohol esters). The resulting test suspensions were then used in Tests A-G. Spraying a 200 ppm test suspension to the point of run-off on the test plants was the equivalent of a rate of 800 g/ha. The test suspension was sprayed to the point of run-off on wheat seedlings. The following day the seedlings were inoculated with a spore suspension of Septoria nodorum (the causal agent of wheat glume blotch) and incubated in a saturated atmosphere at 20° C. for 48 h, and then moved to a growth chamber at 20° C. for 7 days, after which time disease ratings were visually made. Results for Tests A-G are given in Table A. In the Table, a rating of 100 indicates 100% disease control and a rating of 0 indicates no disease control (relative to the controls). A dash (-) indicates no test results. All results are for 200 ppm except where followed by an “*”, which indicates 40 ppm.

Septoria tritici = test: Test E: wheat leaf blotch, preventive spray on wheat seedlings; conditions: 200 ppm, wheat seedlings sprayed to run-off, inoculated next day, rated after 48 h + 19 days
Description: General protocol for preparing test suspensions for Tests A-G: the test compounds were first dissolved in acetone in an amount equal to 11% of the final volume and then suspended at the desired concentration (in ppm) in acetone and purified water (50/50 mix by volume) containing 250 ppm of the surfactant Trem® 014 (polyhydric alcohol esters). The resulting test suspensions were then used in Tests A-G. Spraying a 200 ppm test suspension to the point of run-off on the test plants was the equivalent of a rate of 800 g/ha. The test suspension was sprayed to the point of run-off on wheat seedlings. The following day the seedlings were inoculated with a spore suspension of Septoria tritici (the causal agent of wheat leaf blotch) and incubated in a saturated atmosphere at 24° C. for 48 h, and then moved to a growth chamber at 20° C. for 19 days, after which time disease ratings were visually made. Results for Tests A-G are given in Table A. In the Table, a rating of 100 indicates 100% disease control and a rating of 0 indicates no disease control (relative to the controls). A dash (-) indicates no test results. All results are for 200 ppm except where followed by an “*”, which indicates 40 ppm.

Botrytis cinerea = test: Test F: tomato botrytis, preventive spray on tomato seedlings; conditions: tomato seedlings sprayed to run-off, inoculated next day, rated after 48 h + 3 days; for Percentage Disease Control Test F: 200 ppm
Description: General protocol for preparing test suspensions for Tests A-G: the test compounds were first dissolved in acetone in an amount equal to 11% of the final volume and then suspended at the desired concentration (in ppm) in acetone and purified water (50/50 mix by volume) containing 250 ppm of the surfactant Trem® 014 (polyhydric alcohol esters). The resulting test suspensions were then used in Tests A-G. Spraying a 200 ppm test suspension to the point of run-off on the test plants was the equivalent of a rate of 800 g/ha. The test suspension was sprayed to the point of run-off on tomato seedlings. The following day the seedlings were inoculated with a spore suspension of Botrytis cinerea (the causal agent of tomato botrytis) and incubated in saturated atmosphere at 20° C. for 48 h, and then moved to a growth chamber at 27° C. for 3 additional days, after which time disease ratings were visually made. Results for Tests A-G are given in Table A. In the Table, a rating of 100 indicates 100% disease control and a rating of 0 indicates no disease control (relative to the controls). A dash (-) indicates no test results. All results are for 200 ppm except where followed by an “*”, which indicates 40 ppm.

Alternaria solani = test: Test G: tomato early blight, preventive spray on tomato seedlings; conditions: tomato seedlings sprayed to run-off, inoculated next day, rated after 48 h + 5 days; for Percentage Disease Control Test G: 200 ppm
Description: General protocol for preparing test suspensions for Tests A-G: the test compounds were first dissolved in acetone in an amount equal to 11% of the final volume and then suspended at the desired concentration (in ppm) in acetone and purified water (50/50 mix by volume) containing 250 ppm of the surfactant Trem® 014 (polyhydric alcohol esters). The resulting test suspensions were then used in Tests A-G. Spraying a 200 ppm test suspension to the point of run-off on the test plants was the equivalent of a rate of 800 g/ha. The test suspension was sprayed to the point of run-off on tomato seedlings. The following day the seedlings were inoculated with a spore suspension of Alternaria solani (the causal agent of tomato early blight) and incubated in a saturated atmosphere at 27° C. for 48 h, and then moved to a growth chamber at 24° C. for 5 days, after which time disease ratings were visually made. Results for Tests A-G are given in Table A. In the Table, a rating of 100 indicates 100% disease control and a rating of 0 indicates no disease control (relative to the controls). A dash (-) indicates no test results. All results are for 200 ppm except where followed by an “*”, which indicates 40 ppm.

Row | Compound | Percentage Disease Control Test A [1] | Percentage Disease Control Test B [2] | Percentage Disease Control Test C [3] | Percentage Disease Control Test D (Septoria nodorum) | Percentage Disease Control Test E (Septoria tritici) | Percentage Disease Control Test F (Botrytis cinerea) | Percentage Disease Control Test G (Alternaria solani) | pest or weed control at 200 ppm ([1]; Blumeria graminis, 192 h, read-out: Percentage Disease Control Test A) | pest or weed control at 200 ppm ([2]; Puccinia recondita, 192 h, read-out: Percentage Disease Control Test B) | pest or weed control at 200 ppm (Septoria nodorum; Parastagonospora nodorum, 216 h, read-out: Percentage Disease Control Test D) | pest or weed control at 200 ppm (Septoria tritici; Zymoseptoria tritici, 456 h, read-out: Percentage Disease Control Test E) | pest or weed control at 200 ppm (Botrytis cinerea; Botrytis cinerea, topical, 120 h, read-out: Percentage Disease Control Test F) | pest or weed control at 200 ppm (Alternaria solani; Alternaria solani, topical, 168 h, read-out: Percentage Disease Control Test G)
1 | COC(=O)NCc1cc(-n2ccc(-c3ccc4c(c3)C(=O)CCO4)n2)ccc1F [Compound 18] | 90% | 100% | 74% | 99% | 97% | 79% | 50% | – | – | – | – | – | –
2 | COC(=O)NCc1cc(-n2ccc(-c3ccc4c(c3)N(C)CCO4)n2)ccc1F [Compound 21] | 13% | 100% | 98% | 100% | 96% | 99% | 99% | – | – | – | – | – | –
3 | COC(=O)NCc1cc(-n2ccc(-c3ccc4c(c3)OCCO4)n2)ccc1C [Compound 26] | 100% | 100% | 100% | 100% | 99% | 33% | 9% | – | – | – | – | – | –
4 | COC(=O)NCc1cc(-c2ccn(-c3ccc4c(c3)C=C(C#N)CO4)n2)ccc1Cl [Compound 27] | 0% | 99% | 0% | 100% | 0% | 66% | 86% | – | – | – | – | – | –
5 | COC(=O)NCc1cc(-c2ccn(-c3ccc4c(c3)OCCO4)n2)ccc1C [Compound 19] | 100% | 100% | 100% | 100% | 100% | 99% | 73% | – | – | – | – | – | –
6 | COC(=O)NCc1cc(-n2ccc(-c3ccc4c(c3)NCCO4)n2)ccc1F [Compound 15] | 0% | 100% | 38% | 100% | 99% | 80% | 12% | – | – | – | – | – | –
7 | COC(=O)NCc1cc(-c2ccn(-c3ccc4c(c3)OCCO4)n2)ccc1Br [Compound 17] | 100% | 100% | 100% | 100% | 99% | 87% | 93% | – | – | – | – | – | –
8 | COC(=O)NCc1cc(-n2ccc(-c3ccc4c(c3)C(F)CCO4)n2)ccc1F (centres unmarked) [Compound 22] | 100% | 100% | 100% | 100% | 94% | 33% | 8% | – | – | – | – | – | –
9 | COC(=O)NCc1cc(-c2ccn(-c3ccc4c(c3)CCCO4)n2)ccc1Cl [Compound 1, methyl N-[[2-chloro-5-[1-(3,4-dihydro-2H-1-benzopyran-6-yl)-1H-pyrazol-3-yl]phenyl]methyl]carbamate] | – | – | – | – | – | – | – | 100% | 100% | 100% | 92% | 0% | 100%
